# Experimental data as given in patent US5126258A (priority 1988, dated 1992).
# Read-outs that look alike come from different tables or passages of the source.
# What was measured:
# [1] = system: monoclonal antibody P3 6D4; assay: Ester hydrolysis by monoclonal antibody P3 6D4, HPLC; format: biochemical, mouse; conditions: for t1/2 Antibody (P3 6D4): 5 micromolar substrate, 0.1 micromolar antibody, 50 mM phosphate pH 8.0, 25 C
# Procedure: FIG. 3 illustrates the rate of hydrolysis of a carboxylic ester (Compound 7) determined by HPLC under the conditions described in Table 1 (50 mM phosphate buffer at pH 8.0 and 23 degrees C). ( ) Uncatalyzed (background)rate of hydrolysis. (.quadrature.) Effect of 0.5 micromolar non-specific monoclonal IgG. ( ) 0.1 Micromolar anti-Compound 4 monoclonal antibody from hybridoma P3 6D4. The superimposed curve represents a theoretical exponential decay which fits the data points.
# (§1) In particular, an exemplary monoclonal receptor was produced by the standard hybridoma technology of Kohler et al., Nature, 256, 495 (1975). Specifically, female 129G1X^+ mice were immunized by intraperitoneal injection with an inoculum of 100 micrograms of conjugate (e.g., Compound 4i bound to KLH) in 300 microliters of a 1:1 mixture of phosphate buffered saline (PBS) pH 7.4 and complete Freund's adjuvant. Two weeks later, the mice were again injected in a like manner with 50 micrograms of the foregoing conjugate in 300 microliters of a 1:1 mixture of PBS (pH 7.4) and 10 mg/ml alum. After an additional eight weeks, the mice were immunized intravenously with 50 micrograms of the conjugate in 200 microliters of PBS (pH 7.4). The spleens were removed from the mice 4 days later, and the spleen cells were fused to myeloma cells.
# (§2) The lack of spectroscopic distinction between such esters and their hydrolysis products recommended a chromatographic analysis of the process. Referring to FIG. 3, a mixture of Compound 7 (5 uM) and the monoclonal antibody from hybridoma P3 6D4 (0.1 uM) in phosphate buffer (50 mM, pH 8.0) was analyzed over time by high performance liquid chromatography (HPLC). The accelerated hydrolysis of the ester was apparent from the decrease of its peak and the concurrent increase in two new peaks that correspond with the expected products. Under these conditions, the ester is completely consumed in 60-80 minutes during which time the background rate accounts for about 12 to 16 percent hydrolysis. The chromatographic profile is the same as that produced by treatment with hog liver esterase.
# (§3) *Hydrolysis of carboxylic esters by monoclonal antibody (from hybridoma P
# (§4) 6D4) and by hog liver esterase (Sigma Chemical Co., St. Louis, MO, EC
# (§5) 3.1.1.1) determined by HPLC on an analytical RPC18 column (Vydac 218TP54)
# (§6) with isocratic elution [acetonitrile: water plus 0.1 percent
# (§7) trifluoroacetic acid; (35:65)] at a flow rate of 1.0 ml/min and the
# (§8) detector set at 245 nm. The initial substrate concentration was 5
# (§9) micromolar and that the internal standard (acetophenone) was 10 microm
# (§10) olar in 50 mM phosphate buffer at pH 8.0. The retention times (minutes)
# (§11) were as follows: acetophenone, 5.0; Compound 7, 8.3; Compound 8, 6.7;
# (§12) Compound 9, 4.1; Compound 10, 11.1 (40 percent acetonitrile elution);
# (§13) Compound 11, 8.2. The antibody concentration was 15 micrograms/ml (0.1
# (§14) micromolar) and that of esterase was 5.5 micrograms/ml. The reaction
# (§15) mixtures were kept at 25 degrees C. and aliquots were analyzed at
# (§16) intervals of 2 to 20 minutes. Three or more determinations were used to
# (§17) plot a curve from which the halflife of the reaction is estimated (see
# [2] = system: monoclonal receptor P3 6D4; assay: Stoichiometric transacylation reaction of monoclonal receptor P3 6D4 with coumarin ester Compound 5 (fluorescence) and its inhibition/inactivation; format: biochemical, mouse
# How it was run: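 Antibody P3 6D4 (100 nM final) reacted at 23 °C with coumarin ester 5 in Tris-HCl or phosphate buffer (50 mM, pH 4–9), followed by fluorescence (ex 355/em 455 nm). Initial rates corrected for spontaneous hydrolysis; kinetic parameters from hyperbolic and double-reciprocal fits, Ki from Lineweaver-Burk with ≥5 inhibitor concentrations.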
# [3] = system: monoclonal antibody P3 6D4; assay: Kinetics and inhibition of catalytic ester hydrolysis by monoclonal antibody P3 6D4, spectrophotometric at 245 nm; format: biochemical, mouse; conditions: for Km / Vmax / kcat: 50 mM phosphate pH 8.0, 25 C; for Km / Vmax: 100 nM IgG; for Km: figure = Km × 10^6; for Vmax: figure = Vmax × 10^9; for kcat: printed figure = kcat × 10^2; for kcat/kuncat / Ki: pH 8.0; for acceleration above the background rate: pH 8.0, corrected for background hydrolysis rate; for Ki: figure = Ki × 10^7, read-out: Ki
# Procedure: FIG. 4 illustrates a Lineweaver-Burk plot for the hydrolysis of Compound 7 by anti-Compound 4 monoclonal antibody from hybridoma P3 6D4. Velocities were determined spectrophotometrically by measuring initial rates during the first linear portion of the reaction as described with reference to Table 2. The substrate concentrations were corrected for amounts consumed during initial equilibration. ( ) No inhibitor present. ( ) Inhibited by 50 nM phosphonate (Compound 3). ( ) Inhibited by 100 nM phosphonate (Compound 3).
# as §1
# Reaction kinetics were measured spectrophotometrically by following the absorption change at 245 nanometers. […] Kinetic parameters obtained with these substrates are shown in Table 2 along with the inhibition constants obtained with phosphonate (Compound 3). Under these conditions, the acceleration above the background rate is about 960-fold for Compound 7 and about 200-fold for Compound 8 (corrected for the background hydrolysis rate).
# *The kinetic parameters shown in Table 2 are for the hydrolysis of esters
# (Compounds 7 and 8) by monoclonal antibody P3 6D4. A PerkinElmer lambda 4
# spectrophotometer, equipped with thermostatted cell holder, was used to
# measure absorption changes at 245 nm. Cells containing the substrate at
# concentrations of 0.5 to 50 micromolar in phosphate buffer (50 mM, pH 8.0
# were preequilibrated at 25 degrees C. The concentration of active IgG in
# stock solution was found by reacting with the coumarin ester (Compound 5)
# and measuring the yield of hydroxycoumarin by fluorescence. The kinetic
# run was initiated by addition of an aliquot of the antibody stock solutio
# (in 50 mM phosphate buffer, pH 8.0) calculated to give 100 nM IgG. The
# mixture was allowed to equilibrate for 2 to 3 minutes and the rate was
# then measured during the subsequent 10 minutes. The absorption change for
# complete hydrolysis was determined by treatment with esterase. Kinetic
# parameters were obtained from L ineweaverBurk plots (see FIG. 4).
# Inhibition constants were determined from a plot of the slopes with at
# least four inhibitor concentrations of Compound 3. The data were analyzed
# hog liver esterase = format: biochemical; conditions: pig, 5 µM, pH 8
# Procedure: as §2, §3, §4, §5, §6, §7, §8, §9, §10, §11, §12, §13, §14, §15, §16, §17
# Solubility = format: physicochemical; conditions: aqueous buffer
# [4] = Metal chelate formation constants, potentiometric titration; format: physicochemical; conditions: titrimetric analysis, estimated; read-out: formation constants of 1:1 chelates with divalent metal ions
# Source text: Such a possibility was investigated using a dipicolinic acid halide to derivatize the ortho aminomethyl group of a phenolic structure (see Compounds 3 and 4 of FIG. 2). The dealkylation of the phosphonyl and acyl esters of this adduct exposes the potential ligands for the formation of a metal chelate. The intrinsic stability of complexes of this ligand, however, determined with divalent transition metals such as cobalt, zinc and copper, are probably too low to expect these chelates to maintain their integrity in the immunization process. In fact, the formation constants of 1:1 chelates of Compound 3 with the divalent metal ions are in the range of 10^4 -10^5 M^-1 as estimated by titrimetric analysis.
# Determination of pKa and stability constants K:
# All determinations of pKa and stability constants (K) are performed according to the method of Martell. This method consisted of potentiometric titration of the particular compound (at a concentration of about 1.4 mM) in the absence of and in the presence of the metal ion being investigated. The ionic strength was maintained constant using 0.1M NaClO4 as a supporting electrolyte. All measurements were carried out under nitrogen at 25 degrees C plus or minus 0.01 degrees C.
# [5] = Spontaneous (uncatalyzed, background) hydrolysis; format: physicochemical; conditions: spectrophotometric at 245 nm, initial rates at five ester concentrations; figure = k × 10^5
# How it was run: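 Background (uncatalyzed) hydrolysis of ester substrates measured in 50 mM phosphate buffer, pH 8.0, without antibody, as percentage of reactant consumed over the stated period. Quantified by C18 HPLC (acetonitrile/water with 0.1% trichloroacetic acid); Compounds 5 and 20 followed by fluorescence (ex 355 nm, em 455 nm).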
# [6] = leaving group alcohol; source not stated; cited from earlier work
Structure (SMILES),t1/2 Antibody (P3 6D4) [1] [min],Km [3] [nM],Vmax [3] [µM/min],kcat [3] [s⁻¹],kcat/kuncat [3],acceleration above the background rate [3],t1/2 Esterase (hog liver esterase) [min],also measured
O=C(O)CCC(=O)Nc1ccc(OC(=O)Cc2ccc(NC(=O)C(F)(F)F)cc2)cc1 [Compound 8],60,620,0.06,0.008,210,about 200 fold,52,"accelerated hydrolysis by P3 6D4 (substrate acceptance) ([1]; pH 8.0): somewhat slower rate; inactivation of receptor [2]: loss of activity; solubility (Solubility; 50 mm phosphate buffer, phosphate buffer 50 mM, pH 8.0, read-out: soluble up to concentration): ≥ 100 µM"
CCOP(=O)(Cc1ccc(NC(=O)C(F)(F)F)cc1)Oc1ccc(NC(C)=O)cc1CNC(=O)c1cccc(C(=O)OC)n1 (stereo not shown) [Compound 3],–,–,–,–,–,–,–,"Ki ([3]; inhibitor Compound 3, substrate Compound 7 (table line 7)): 160 nM; Ki ([3]; inhibitor Compound 3, substrate Compound 8 (table line 8)): 65 nM; Kd [4]: 10 to 100 µM"
CC(=O)Nc1ccc(OC(=O)Cc2ccc(NC(=O)C(F)(F)F)cc2)cc1 [Compound 7],16,1900,0.132,0.027,960,about 960 fold,4,"time to complete consumption of ester ([1]; 5 uM Compound 7, 0.1 uM antibody P3 6D4, 50 mM phosphate pH 8.0): 60 to 80 min; kuncat [5]: 280000 s⁻¹; turn over of receptor with substrate ([3]; without noticeable inactivation): several hundred fold; solubility (Solubility; read-out: concentration above which solutions become slightly turbid): 15 µM"
Oc1cccc2ccccc12 [alpha-naphthol],–,–,–,–,–,–,–,pKa [6]: about 9.3
